Reference: patent publication EP0311383B1, “Monoclonal antibody to methamphetamine, preparation of the same, assay method and assay kit of methamphetamine” (UBE INDUSTRIES, LTD., priority 1987, dated 1989)
Read-outs that look alike come from different tables or passages of the source.

What was measured:
Type in all cases: binding, mouse
[1] = test system: "enzyme-labeled antibody" (peroxidase-labeled monoclonal antibody MA-15); assay: Reactivity of MA analogous compounds in the competitive enzyme immunoassay with MA bound protein and enzyme-labeled antibody (Example 15)
Procedure: The antibody in the "enzyme-labeled antibody" was obtained as the purified monoclonal antibody as shown in Reference example 2 by use of the MA-15 strain (FERM-P 1496).
First, […] of horseradish peroxidase was dissolved in 1 ml of distilled water and 200 µl of 0.1 M sodium periodate was added, followed by standing at room temperature for 30 minutes. After the enzyme solution was dialyzed at 4 °C overnight against 1 mM acetate buffer (pH 4.5), 100 µl of 0.2 M sodium carbonate buffer (pH 9.5) was added to adjust pH to 9.5. On the other hand, 8 mg of the monoclonal antibody (MA-15) dissolved in PBS was dialyzed at 4 °C overnight against 0.01 M sodium carbonate buffer (pH 9.5). The peroxidase and the monoclonal antibody thus obtained was mixed, left to stand at room temperature for 2 hours and a half, and sodium borohydride was added to the reaction mixture, followed by standing at 4 °C for 2 hours. The peroxidase-labeled monoclonal antibody thus obtained was dialyzed at 4 °C overnight against PBS, and this was diluted to 100-fold with PBS containing 0.01 % sodium ethylmercurithiosalicylate, apportioned each in 0.2 ml into a bottle and stored under lyophilization to provide the "enzyme-labeled antibody" (10 µg/bottle) which is the assay kit of MA. During assay of MA, 0.2 ml of distilled water was added into the bottle to dissolve well the lyophilized powder, and the solution was suitable diluted with PBS before use.
The MA-BSA which is the "MA bound protein" (bound product of MA and BSA, 5 µg/ml) was apportioned each in 100 µl into a 96-well flat-bottomed plate for immunoassay which is the solid phase support (microplate made of polystyrene produced by Nunc Co.), and left to stand under 4 °C overnight to immobilize MA-BSA onto each well. Next, for preventing non-specific adsorption of the "enzyme-labeled antibody" onto the plate, a washing solution containing 10 % calf serum (phosphate buffer of pH 7.4 containing 0.05 % of Tween 20) was placed and left to stand under room temperature for 30 minutes. Next, after washing with the same washing solution, 50 µl of the standard MA solution prepared by using the diluted urine of healthy man (produced by HYLAND DIAGNOSTIC CO.) to 5-fold with the same washing solution [(0 to 150 ng)/50 µl] and 50 µl of the "enzyme-labeled antibody" prepared in Example 1 were added at the same time into each well, followed by mixing and standing under room temperature for 30 minutes. […] Finally, each 50 µl of 2N sulfuric acid was apportioned to stop the enzymatic reaction, and absorbance of the solution after stopping of the reaction at 492 nm was assayed by use of a microplate photometer. […]

[2] = test system: monoclonal antibody MA-13 (FERM BP-1495); assay: Assay test II: competitive ELISA on immobilised MA-BSA, reactivities of the monoclonal antibody with various compounds
Procedure: (§1) First, in each analytic well of a 96-well U-bottomed ELISA plate was apportioned each 50 µl of an MA-BSA solution (2 µg/ml, dissolved in 0.05 M carbonate buffer of pH 9.8) which is the antigen for analysis prepared in Example 1, and the mixture was left to stand overnight at 4 °C (by such treatment, MA-BSA was adsorbed onto the surface of each analytic well).
(§2) Subsequently, after each analytic well was washed with a washing solution (PBS containing 0.05 % of Tween 20), each apportioned in each analytic well, left to stand at room temperature for 2 hours, these respective analytic wells were washed with the washing solution, and the culture supernatant in each culture well of the above culture plate was apportioned each in 50 µl into these respective analytic wells and left to stand at room temperature for 2 hours (for the negative control, a supernatant obtained by culturing similarly a mixture of mouse spleen lymphocytes and mouse myeloma cells before fusion was employed; on the other hand, for the positive control, the serum of mouse used for cell fusion in the present invention diluted to 100-fold with the washing liquor was used).
(§3) Next, each analytic well in the ELISA plate was washed, and each 50 µl of an alkaline phosphatase labeled antibody solution to mouse immunoglobulin was apportioned into each analytic well and left to stand at room temperature for 1 hour. And, after each analytic well in the ELISA plate was washed, each 100 µl of a sodium p-nitrophenylphosphate 6H₂O solution (1 mg/ml) was apportioned into each analytic well and, after the reaction at room temperature for 30 minutes, absorbance of each well at 405 nm was assayed by means of a spectrophotometer for microplate.
(§4) In order to determine the reaction specificities of the monoclonal antibodies such as MA-7, MA-13 and MA-15, reactivities with compounds different from MA such as AP (amphetamine), EP (ephedrin), ME (methylephedrin), MPA (methoxyphenamine), PT (phentermine), norEp (norephedrin), DBED (N,N′-dibenzylethylenediamine), OH-MA (p-hydroxymethamphetamine), OH-AP (p-hydroxyamphetamine), OH-EP (p-hydr oxyephedrin), OH-norEP (p-hydroxynorephedrin), Mes (mescaline), etc. were investigated according to the same ELISA method as described above in the step (c) (however, the reagent used for assay was made two-fold in amount, and a mixed solution of 50 µl of a solution of a compound diluted at multiple stages with the washing liquor and 50 µl of a monoclonal antibody solution was used in place of the hybridoma culture supernatant).
(§5) The reactivities of these antibodies with MA, AP, EP, ME, MPA, PT, norEp, DBED, OH-MA, OH-AP, OH-EP, OH-norEP and Mes are shown in Table 1 in terms of the reactive ratios relative to MA.

[3] = test system: monoclonal antibody MA-15 (FERM BP-1496); assay: as above
Procedure: as §1, §2, §3, §4, §5

[4] = test system: monoclonal antibody MA-7 (FERM BP-1494); assay: as above
Procedure: as §1, §2, §3, §4, §5

[5] = test system: "antibody carrier" (monoclonal antibody to MA on polystyrene latex); assay: Latex agglutination assay with MA carrier and antibody carrier, time until agglutination is seen with naked eyes; conditions: same as at 0 ppm
Procedure: Each solution was quickly stirred with a stirring stick to carry out the reaction while moving the reaction plate, forward and backward, left and right, at a constant temperature (e.g. room temperature) for a certain period of time (e.g. 1 to 2 minutes), and the agglutination of each set formed by the reaction between the "antibody carrier" and the "MA carrier" is observed. At this time, by observing with comparison between the agglutination in the case of the set by use of the "standard MA solution" and the agglutination in the case of the set by use of the sample to be assayed, the MA content in the sample to be assayed can be known.
A mixture of 100 µl of MA-BSA solution (400 µg/ml) with 100 µl of a polystyrene latex which is the carrier (solid components 4.0 % by weight, particle size 0.8 µm, solvent PBS was shaken at 37 °C for 3 hours to have the MA-BSA carried physically on the polystyrene latex surface to obtain the "MA carrier".
The "MA carrier" prepared in Example 18 and the "antibody carrier " prepared in Example 19 were added dropwise each in 25 µl separately from each other onto the three sheets of reaction plates, and on the same plates were further added each 5 µl of the samples to be assayed with MA concentrations of 0.5 ppm and 1.0 ppm prepared by dilution with urine of healthy man (produced by HYLAND DIAGNOSTIC CO.) separately from each other, followed immediately by mixing of the "MA carrier", the "antibody carrier" and the sample to be assayed with a stirring stick.
In Example 20, samples to be assayed were prepared by use of methylephedrine (ME) in place of MA and the assay was carried out, following otherwise the same procedure.
In Example 20, samples to be assayed were prepared by use of ephedrine (EP) in place of MA and the assay was carried out, following otherwise the same procedure.

[6] = monoclonal antibody MA-13, compound diluted at multiple stages, MA = 1
[7] = monoclonal antibody MA-15, compound diluted at multiple stages, MA = 1
[8] = monoclonal antibody MA-7, compound diluted at multiple stages, MA = 1
[9] = concentration in sample 0.5 ppm
[10] = concentration in sample 1.0 ppm
[11] = enzyme-labeled antibody, according to Example 6, MA = 100

SMILES | reactive ratios relative to MA [2, 6] | reactive ratios relative to MA [3, 7] | reactive ratios relative to MA [4, 8] | also measured
CC(N)Cc1ccccc1 (centres unmarked) [AP, amphetamine] |  |  |  | Reactivity (%) [1]: 1.8%; reactive ratios relative to MA [2]: 0.0062; reactive ratios relative to MA [3]: 0.019; reactive ratios relative to MA [4]: 0.0051
c1ccc(CNCCNCc2ccccc2)cc1 [DBED, N,N′-dibenzylethylenediamine] | 0.23 | 0.0055 | 0.17 | 
CN[C@@H](C)[C@H](O)c1ccccc1 [EP, ephedrin] | 0.0025 | 0.0012 | 0.0018 | time until particles of polystyrene latex were observed with naked eyes to be agglutinated [5, 9]: ≤ 30 s; time until particles of polystyrene latex were observed with naked eyes to be agglutinated [5, 10]: ≤ 30 s
CN[C@@H](C)Cc1ccccc1 [MA, methamphetamine] | 1 | 1 | 1 | Reactivity (%) [1, 11]: 100%
CC([C@H](O)c1ccccc1)N(C)C (some centres unmarked) [ME, methylephedrin] | 0.028 | 0.016 | 0.022 | Reactivity (%) [1, 11]: 1.2%; time until particles of polystyrene latex were observed with naked eyes to be agglutinated [5, 9]: ≤ 30 s; time until particles of polystyrene latex were observed with naked eyes to be agglutinated [5, 10]: ≤ 30 s
CNC(C)Cc1ccccc1OC (centres unmarked) [MPA, methoxyphenamine] | 0.0037 | 0.0016 | 0.023 | Reactivity (%) [1, 11]: <0.2%
COc1cc(CCN)cc(OC)c1OC [Mes, mescaline] |  |  |  | reactive ratios relative to MA [2]: <0.00001; reactive ratios relative to MA [4]: <0.00001
CC(N)Cc1ccc(O)cc1 (centres unmarked) [OH-AP, p-hydroxyamphetamine] | 0.003 | <0.001 | <0.001 | reactive ratios relative to MA ([3]; monoclonal antibody MA-15, compound diluted at multiple stages, MA = 1, listed as p-hydroxyamphetamine): < 0.001; reactive ratios relative to MA ([4]; monoclonal antibody MA-7, compound diluted at multiple stages, MA = 1, listed as p-hydroxyamphetamine): < 0.001
CNC(C)C(O)c1ccc(O)cc1 (centres unmarked) [OH-EP, p-hydroxyephedrine] | <0.001 | 0.0031 | <0.001 | reactive ratios relative to MA ([2]; monoclonal antibody MA-13, compound diluted at multiple stages, MA = 1, listed as p-hydroxephedrine): < 0.001; reactive ratios relative to MA ([4]; monoclonal antibody MA-7, compound diluted at multiple stages, MA = 1, listed as p-hydroxyephedrine): < 0.001
CNC(C)Cc1ccc(O)cc1 (centres unmarked) [OH-MA, p-hydroxymethamphetamine] | 0.14 | 0.014 | 0.0039 | 
CC(N)C(O)c1ccc(O)cc1 (centres unmarked) [OH-norEP, p-hydroxynorephedrin] | <0.001 | <0.001 | <0.001 | reactive ratios relative to MA ([2]; monoclonal antibody MA-13, compound diluted at multiple stages, MA = 1, listed as p-hydroxynorephedrine): < 0.001; reactive ratios relative to MA ([3]; monoclonal antibody MA-15, compound diluted at multiple stages, MA = 1, listed as p-hydroxynorephedrine): < 0.001; reactive ratios relative to MA ([4]; monoclonal antibody MA-7, compound diluted at multiple stages, MA = 1, listed as p-hydroxynorephedrine): < 0.001
CC(C)(N)Cc1ccccc1 [PT, phentermine] | 0.12 | 0.0039 | 0.042 | 
CC(N)C(O)c1ccccc1 (centres unmarked) [norEP, norephedrin] | <0.001 | <0.001 | <0.001 | reactive ratios relative to MA ([2]; monoclonal antibody MA-13, compound diluted at multiple stages, MA = 1, listed as norephedrine): < 0.001; reactive ratios relative to MA ([3]; monoclonal antibody MA-15, compound diluted at multiple stages, MA = 1, listed as norephedrine): < 0.001; reactive ratios relative to MA ([4]; monoclonal antibody MA-7, compound diluted at multiple stages, MA = 1, listed as norephedrine): < 0.001
